Common to all, as to assay type: cell-based
Test [1] has as its target T1, GLP-1R (Homo sapiens, UniProt P43220). Kind of test: PathHunter β-arrestin assay. The method, then:
The effects of the chemical entities described herein on β-arrestin signaling and associated downstream processes (e.g., those delineated above) can be assessed using conventional methods, e.g., PathHunter β-arrestin Assay for determining β-arresting coupling (see Examples section). […] It has been shown that b-arrestin coupling is a key strep in receptor internalization and subsequent de-sensitization and attenuation of signaling.
5,000 cells were seeded in appropriate cell culture media per well in a low volume 384-well tissue culture plate. The assay plate was incubated with cells overnight at 37° C. and 5% CO2. The media was removed, and 5 μL of appropriate cell culture media containing 0.2% BSA was added. Agonist serial dilutions in a separate 384 well dilution plate in a 22-point series of 2× dilutions of agonist in DMSO were performed as follows. 80 μL of the highest concentration of Agonist/DMSO was added to well No. 1. 40 μL was removed from well No. 1, and added to well No. 2, followed by gentle mixing. […] This process was repeated until well No. 22. Additional serial dilutions for additional agonists were set up in a similar manner. 100 nL of each 2× agonist serial dilution was added in duplicate to the designated agonist rows of the assay plate using the Labcyte ECHO. Assay plate was incubated for 90 minutes at 37° C. and 5% CO2. A stock of Working Detection Solution in a separate 15 ml polypropylene tube was prepared by mixing 19 parts of Cell Assay Buffer, 5 parts of Substrate Reagent 1, 1 part Substrate Reagent 2. […] Plates were spun down briefly. Assay plate was incubated for 3 hour at room temperature in the dark for the immunocompetition reaction to occur. Samples were read on Tecan i-control plate reader using luminescence mode with 100 ms integration time. Data analysis was performed using GraphPad Prism.

Test [2] has as its target T1, GLP-1R. Kind of test: HitHunter cAMP assay (GLP-1R). The note with it: cAMP; for Emax: read-out: (Emax) GLP-1R. Summed up:
(§1)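 Luminescent readout of cAMP by enzyme-fragment immunocompetition gave agonist concentration-response data. Cells (10,000/well) sat in HBSS buffer containing IBMX 625 μM, HEPES 10 mM and BSA 0.2%, exposed to agonist for 30 min at room temperature.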

Test [3] deals with T2, GIP-R (Homo sapiens, UniProt P48546).
T2 sequence (P48546 22-466): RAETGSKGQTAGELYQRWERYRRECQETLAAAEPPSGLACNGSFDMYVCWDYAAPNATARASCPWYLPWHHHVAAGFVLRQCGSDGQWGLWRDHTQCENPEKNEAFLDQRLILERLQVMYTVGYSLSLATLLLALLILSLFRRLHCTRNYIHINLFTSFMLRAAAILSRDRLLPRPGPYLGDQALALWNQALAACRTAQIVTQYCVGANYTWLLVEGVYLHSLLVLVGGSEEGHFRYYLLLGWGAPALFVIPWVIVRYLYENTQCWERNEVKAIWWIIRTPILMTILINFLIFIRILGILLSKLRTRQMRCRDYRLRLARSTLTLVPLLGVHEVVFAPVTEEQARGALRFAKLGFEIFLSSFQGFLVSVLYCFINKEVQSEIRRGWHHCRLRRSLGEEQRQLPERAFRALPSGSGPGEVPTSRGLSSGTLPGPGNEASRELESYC
Put plainly: HitHunter cAMP assay (GIP-R). The settings on record: cAMP; for Emax: read-out: (Emax) GIP-R. Summed up:
as §1
A general note: cAMP levels reflect the balance of adenylyl cyclase and phosphodiesterase activity.

The mark [4] stands for this setting: PathHunter β-arrestin assay, read-out: β-arrestin activity EC50.
[5] abbreviates: Table 3A, read-out: EC50 GLP-1R/nM.
Setting [6] is: Table 3A, read-out: EC50 GIP-R/nM.
Where [7] appears, read: Table 3, read-out: EC50 GLP-1R/nM.
The mark [8] stands for this setting: Table 3, read-out: EC50 GIP-R/nM.

Molecules are shown by their SMILES. Where two headings read alike, the source gives them in different places.

The values below come from US20260176320A1, “MODULATORS OF G-PROTEIN COUPLED RECEPTORS” (priority 2018, published 2026).

In general, Emax refers to the greatest response seen or fitted, relative to the assay's reference.

T1 sequence (P43220 24-463): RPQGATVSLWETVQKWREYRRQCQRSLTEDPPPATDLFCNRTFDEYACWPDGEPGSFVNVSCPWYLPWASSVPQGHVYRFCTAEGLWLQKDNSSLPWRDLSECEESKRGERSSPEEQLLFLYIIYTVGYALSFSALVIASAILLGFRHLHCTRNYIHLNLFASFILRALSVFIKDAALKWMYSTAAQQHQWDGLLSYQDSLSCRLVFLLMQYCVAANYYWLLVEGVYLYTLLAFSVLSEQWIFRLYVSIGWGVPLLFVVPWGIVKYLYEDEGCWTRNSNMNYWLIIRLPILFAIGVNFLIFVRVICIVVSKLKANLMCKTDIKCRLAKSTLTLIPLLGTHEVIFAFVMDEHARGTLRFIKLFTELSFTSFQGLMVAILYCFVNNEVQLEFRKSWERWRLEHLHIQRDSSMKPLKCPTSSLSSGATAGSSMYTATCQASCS

For the molecule `CCCCCCCCCCCCCCCC(=O)N[C@@H](CCC(=O)NCCCC[C@H](NC(=O)[C@H](CO)NC(=O)[C@@H]1CCCN1C(=O)[C@@H]1CCCN1C(=O)[C@@H]1CCCN1C(=O)[C@H](C)NC(=O)CNC(=O)[C@H](CO)NC(=O)[C@H](CO)NC(=O)[C@@H]1CCCN1C(=O)CNC(=O)CNC(=O)[C@H](C)NC(=O)[C@H](CC(C)C)NC(=O)[C@H](CC(C)C)NC(=O)[C@H](Cc1c[nH]c2ccccc12)NC(=O)[C@H](CC(N)=O)NC(=O)[C@@H](NC(=O)[C@H](Cc1ccccc1)NC(=O)[C@H](CCC(=O)O)NC(=O)C(C)(C)NC(=O)[C@H](C)NC(=O)[C@H](C)NC(=O)[C@H](CCC(N)=O)NC(=O)[C@H](CCCCN)NC(=O)[C@H](CC(=O)O)NC(=O)[C@H](CC(C)C)NC(=O)[C@H](Cc1ccc(O)cc1)NC(=O)[C@@H](NC(=O)[C@H](CO)NC(=O)[C@H](Cc1ccc(O)cc1)NC(=O)[C@H](CC(=O)O)NC(=O)[C@H](CO)NC(=O)[C@@H](NC(=O)[C@H](Cc1ccccc1)NC(=O)[C@@H](NC(=O)CNC(=O)[C@H](CCC(=O)O)NC(=O)[C@H](C)NC(=O)CN1CCCCC1=O)[C@@H](C)O)[C@@H](C)O)[C@@H](C)CC)C(C)C)C(N)=O)C(=O)O` [Compound 211], the EC50 in test [1] (setting [4]) is 10 to 1000 nM; in test [2] (setting [5]), below 0.1 nM; in test [3] (setting [6]), 0.1 to 1 nM. Also, the Emax in test [2] (Table 3A) came out at 91%; in test [3] (Table 3A), 50%.

Consider `CC[C@H](C)[C@H](NC(=O)[C@H](CO)NC(=O)[C@H](Cc1ccc(O)cc1)NC(=O)[C@H](CC(=O)O)NC(=O)[C@H](CO)NC(=O)[C@@H](NC(=O)[C@H](Cc1ccccc1)NC(=O)[C@@H](NC(=O)CNC(=O)[C@H](CCC(=O)O)NC(=O)CSCC(=O)NCCCCN1C(=O)CSC1=O)[C@@H](C)O)[C@@H](C)O)C(=O)N[C@@H](Cc1ccc(O)cc1)C(=O)N[C@@H](CC(C)C)C(=O)N[C@@H](CC(=O)O)C(=O)N[C@@H](CCCCN)C(=O)N[C@@H](CCC(N)=O)C(=O)N[C@@H](C)C(=O)N[C@@H](C)C(=O)NC(C)(C)C(=O)N[C@@H](CCC(=O)O)C(=O)N[C@@H](Cc1ccccc1)C(=O)N[C@H](C(=O)N[C@@H](CC(N)=O)C(=O)N[C@@H](Cc1c[nH]c2ccccc12)C(=O)N[C@@H](CC(C)C)C(=O)N[C@@H](CC(C)C)C(=O)N[C@@H](C)C(=O)NCC(=O)NCC(=O)N1CCC[C@H]1C(=O)N[C@@H](CO)C(=O)N[C@@H](CO)C(=O)NCC(=O)N[C@@H](C)C(=O)N1CCC[C@H]1C(=O)N1CCC[C@H]1C(=O)N1CCC[C@H]1C(=O)N[C@@H](CO)C(=O)N[C@@H](CCCCN)C(N)=O)C(C)C` [Compound 184], for which the EC50 was above 1000 nM in test [1]; 1 to 10 nM in test [2] (EC50 GLP-1R/nM, Table 3); 1 to 10 nM in test [2] (EC50 GLP-1R/nM, Table 3A); 10 to 100 nM in test [3] (EC50 GIP-R/nM, Table 3); 10 to 100 nM in test [3] (EC50 GIP-R/nM, Table 3A). The Emax worked out at 99% in test [2] (Table 3), 99% in test [2] (Table 3A), 43% in test [3] (Table 3) and 43% in test [3] (Table 3A).

Consider `CCCCCCCCCCCCCCCC(=O)N[C@@H](CCC(=O)NCCCC[C@H](NC(=O)[C@H](CO)NC(=O)[C@@H]1CCCN1C(=O)[C@@H]1CCCN1C(=O)[C@@H]1CCCN1C(=O)[C@H](C)NC(=O)CNC(=O)[C@H](CO)NC(=O)[C@H](CO)NC(=O)[C@@H]1CCCN1C(=O)CNC(=O)CNC(=O)[C@H](C)NC(=O)[C@H](CC(C)C)NC(=O)[C@H](CC(C)C)NC(=O)[C@H](Cc1c[nH]c2ccccc12)NC(=O)[C@H](CC(N)=O)NC(=O)[C@@H](NC(=O)[C@H](Cc1ccccc1)NC(=O)[C@H](CCC(=O)O)NC(=O)C(C)(C)NC(=O)[C@H](C)NC(=O)[C@H](C)NC(=O)[C@H](CCC(N)=O)NC(=O)[C@H](CCCCN)NC(=O)[C@H](CC(=O)O)NC(=O)[C@H](CC(C)C)NC(=O)[C@H](Cc1ccc(O)cc1)NC(=O)[C@@H](NC(=O)[C@H](CO)NC(=O)[C@H](Cc1ccc(O)cc1)NC(=O)[C@H](CC(=O)O)NC(=O)[C@H](CO)NC(=O)[C@@H](NC(=O)[C@H](Cc1ccccc1)NC(=O)[C@@H](NC(=O)CNC(=O)[C@H](CCC(=O)O)NC(=O)C(C)(C)CNC(=O)CCN1CCCCC1=O)[C@@H](C)O)[C@@H](C)O)[C@@H](C)CC)C(C)C)C(N)=O)C(=O)O` [Compound 4], for which the EC50 was 10 to 1000 nM in test [1] (setting [4]); 0.1 to 1 nM in test [2] (setting [7]); below 0.1 nM in test [2] (setting [5]); 1 to 10 nM in test [3] (setting [8]); 10 to 100 nM in test [3] (setting [6]). The Emax was 100% in test [2] (Table 3), 100% in test [2] (Table 3A), 23% in test [3] (Table 3) and 23% in test [3] (Table 3A).

For `CCCCCCCCCCCCCCCC(=O)N[C@@H](CCC(=O)NCCCC[C@H](NC(=O)[C@H](CO)NC(=O)[C@@H]1CCCN1C(=O)[C@@H]1CCCN1C(=O)[C@@H]1CCCN1C(=O)[C@H](C)NC(=O)CNC(=O)[C@H](CO)NC(=O)[C@H](CO)NC(=O)[C@@H]1CCCN1C(=O)CNC(=O)CNC(=O)[C@H](C)NC(=O)[C@H](CC(C)C)NC(=O)[C@H](CC(C)C)NC(=O)[C@H](Cc1c[nH]c2ccccc12)NC(=O)[C@H](CC(N)=O)NC(=O)[C@@H](NC(=O)[C@H](Cc1ccccc1)NC(=O)[C@H](CCC(=O)O)NC(=O)C(C)(C)NC(=O)[C@H](C)NC(=O)[C@H](C)NC(=O)[C@H](CCC(N)=O)NC(=O)[C@H](CCCCN)NC(=O)[C@H](CC(=O)O)NC(=O)[C@H](CC(C)C)NC(=O)[C@H](Cc1ccc(O)cc1)NC(=O)[C@@H](NC(=O)[C@H](CO)NC(=O)[C@H](Cc1ccc(O)cc1)NC(=O)[C@H](CC(=O)O)NC(=O)[C@H](CO)NC(=O)[C@@H](NC(=O)[C@H](Cc1ccccc1)NC(=O)[C@@H](NC(=O)CNC(=O)[C@H](CCC(=O)O)NC(=O)CSCC(=O)NCCn1[nH]c(=O)ccc1=O)[C@@H](C)O)[C@@H](C)O)[C@@H](C)CC)C(C)C)C(N)=O)C(=O)O` [Compound 241], the EC50 in test [1] is above 1000 nM; in test [2] (EC50 GLP-1R/nM, Table 3A), 1 to 10 nM; in test [3] (EC50 GIP-R/nM, Table 3A) it was 10 to 100 nM. In addition, the figures for the Emax in test [2] (Table 3A) and in test [3] (Table 3A) were 100% and 46%, respectively.

On to `CC[C@H](C)[C@H](NC(=O)[C@H](CO)NC(=O)[C@H](Cc1ccc(O)cc1)NC(=O)[C@H](CC(=O)O)NC(=O)[C@H](CO)NC(=O)[C@@H](NC(=O)[C@H](Cc1ccccc1)NC(=O)[C@@H](NC(=O)CNC(=O)[C@H](CCC(=O)O)NC(=O)CSCC(=O)NCCN1C(=O)c2cccc3cccc(c23)C1=O)[C@@H](C)O)[C@@H](C)O)C(=O)N[C@@H](Cc1ccc(O)cc1)C(=O)N[C@@H](CC(C)C)C(=O)N[C@@H](CC(=O)O)C(=O)N[C@@H](CCCCN)C(=O)N[C@@H](CCC(N)=O)C(=O)N[C@@H](C)C(=O)N[C@@H](C)C(=O)NC(C)(C)C(=O)N[C@@H](CCC(=O)O)C(=O)N[C@@H](Cc1ccccc1)C(=O)N[C@H](C(=O)N[C@@H](CC(N)=O)C(=O)N[C@@H](Cc1c[nH]c2ccccc12)C(=O)N[C@@H](CC(C)C)C(=O)N[C@@H](CC(C)C)C(=O)N[C@@H](C)C(=O)NCC(=O)NCC(=O)N1CCC[C@H]1C(=O)N[C@@H](CO)C(=O)N[C@@H](CO)C(=O)NCC(=O)N[C@@H](C)C(=O)N1CCC[C@H]1C(=O)N1CCC[C@H]1C(=O)N1CCC[C@H]1C(=O)N[C@@H](CO)C(=O)N[C@@H](CCCCN)C(N)=O)C(C)C` [Compound 158], for which the EC50 in test [1] (setting [4]) was above 1000 nM; in test [2] (setting [7]), 10 to 100 nM; in test [2] (setting [5]), 10 to 100 nM; in test [3] (setting [8]), 0.1 to 1 nM; in test [3] (setting [6]), 0.1 to 1 nM. In addition, the Emax in test [2] (Table 3) is 31 to 38%; in test [2] (Table 3A), 31 to 38%; in test [3] (Table 3) it was 104 to 107%; in test [3] (Table 3A), 104 to 107%.
